Reference: patent publication US20140005163A1 (NOVARTIS AG, priority 2010, published 2014)

Tests used:
PI3K beta = biological target: T1, PI3K beta (Homo sapiens, UniProt P42338); assay: PI3K beta kinase assay (Kinase-Glo luminescence); assay type: biochemical
T1 construct: for the full-length p110-b subunit are generated and fused by overlapping PCR; p85(iSH2) fusion partner (see partner chain) (N); His tag (C); made in house; host or cells: baculovirus; Tn5 (Trichoplusia ni) or TiniPro insect cells
T1 sequence (P42338 with tags, fused parts or gaps limits assumed): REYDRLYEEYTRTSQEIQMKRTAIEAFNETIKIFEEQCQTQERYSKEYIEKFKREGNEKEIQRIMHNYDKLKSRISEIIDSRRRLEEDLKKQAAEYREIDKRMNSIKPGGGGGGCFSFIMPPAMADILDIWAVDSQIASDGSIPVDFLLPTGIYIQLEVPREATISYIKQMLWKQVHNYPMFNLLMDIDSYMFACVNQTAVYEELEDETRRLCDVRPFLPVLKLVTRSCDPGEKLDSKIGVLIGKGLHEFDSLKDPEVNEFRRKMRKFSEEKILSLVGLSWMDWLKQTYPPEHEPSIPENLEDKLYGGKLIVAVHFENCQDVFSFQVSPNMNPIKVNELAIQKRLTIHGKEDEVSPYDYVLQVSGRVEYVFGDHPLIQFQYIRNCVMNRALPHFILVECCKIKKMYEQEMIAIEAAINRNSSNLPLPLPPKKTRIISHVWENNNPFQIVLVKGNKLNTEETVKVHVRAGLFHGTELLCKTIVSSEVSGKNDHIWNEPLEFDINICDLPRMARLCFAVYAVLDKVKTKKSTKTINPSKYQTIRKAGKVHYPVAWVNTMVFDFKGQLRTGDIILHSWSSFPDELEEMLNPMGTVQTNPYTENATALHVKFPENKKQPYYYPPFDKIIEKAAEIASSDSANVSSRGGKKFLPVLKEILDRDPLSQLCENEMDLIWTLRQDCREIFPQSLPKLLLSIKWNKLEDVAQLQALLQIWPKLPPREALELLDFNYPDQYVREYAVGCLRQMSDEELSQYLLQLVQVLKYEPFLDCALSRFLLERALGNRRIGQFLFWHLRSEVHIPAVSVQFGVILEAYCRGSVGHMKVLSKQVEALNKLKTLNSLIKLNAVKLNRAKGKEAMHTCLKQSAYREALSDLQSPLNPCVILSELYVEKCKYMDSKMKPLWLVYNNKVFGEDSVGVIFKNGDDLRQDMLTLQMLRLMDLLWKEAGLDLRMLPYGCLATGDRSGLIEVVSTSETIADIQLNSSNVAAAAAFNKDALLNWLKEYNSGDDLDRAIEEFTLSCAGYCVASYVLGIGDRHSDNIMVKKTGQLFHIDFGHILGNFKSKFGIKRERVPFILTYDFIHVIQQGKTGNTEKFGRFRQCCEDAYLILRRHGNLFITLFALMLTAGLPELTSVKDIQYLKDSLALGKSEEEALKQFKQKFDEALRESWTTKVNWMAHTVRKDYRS
In short: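 Enzyme: BV949 p85(iSH2)-Gly linker-p110β FL-His, 25 nM. Substrate: PI 10 μg/mL. ATP: 1 μM, added to start. Buffer: Tris pH 7.5 10 mM, MgCl2 3 mM, NaCl 50 mM, CHAPS 0.05%, DTT 1 mM. RT, 60 min. Readout: Kinase-Glo. IC50 by 4-parameter fit.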

mTOR = biological target: T2, mTOR (Homo sapiens, UniProt P42345); assay: Biochemical assay for m-TOR by TR-FRET; settings: 8 μM ATP, 400 nM GFP-4EBP1, 0.5 nM mTOR
T2 construct: purchased Invitrogen Corporation (Carlsbad/CA, USA) PV4753
T2 sequence (P42345 1360-2549 limits assumed): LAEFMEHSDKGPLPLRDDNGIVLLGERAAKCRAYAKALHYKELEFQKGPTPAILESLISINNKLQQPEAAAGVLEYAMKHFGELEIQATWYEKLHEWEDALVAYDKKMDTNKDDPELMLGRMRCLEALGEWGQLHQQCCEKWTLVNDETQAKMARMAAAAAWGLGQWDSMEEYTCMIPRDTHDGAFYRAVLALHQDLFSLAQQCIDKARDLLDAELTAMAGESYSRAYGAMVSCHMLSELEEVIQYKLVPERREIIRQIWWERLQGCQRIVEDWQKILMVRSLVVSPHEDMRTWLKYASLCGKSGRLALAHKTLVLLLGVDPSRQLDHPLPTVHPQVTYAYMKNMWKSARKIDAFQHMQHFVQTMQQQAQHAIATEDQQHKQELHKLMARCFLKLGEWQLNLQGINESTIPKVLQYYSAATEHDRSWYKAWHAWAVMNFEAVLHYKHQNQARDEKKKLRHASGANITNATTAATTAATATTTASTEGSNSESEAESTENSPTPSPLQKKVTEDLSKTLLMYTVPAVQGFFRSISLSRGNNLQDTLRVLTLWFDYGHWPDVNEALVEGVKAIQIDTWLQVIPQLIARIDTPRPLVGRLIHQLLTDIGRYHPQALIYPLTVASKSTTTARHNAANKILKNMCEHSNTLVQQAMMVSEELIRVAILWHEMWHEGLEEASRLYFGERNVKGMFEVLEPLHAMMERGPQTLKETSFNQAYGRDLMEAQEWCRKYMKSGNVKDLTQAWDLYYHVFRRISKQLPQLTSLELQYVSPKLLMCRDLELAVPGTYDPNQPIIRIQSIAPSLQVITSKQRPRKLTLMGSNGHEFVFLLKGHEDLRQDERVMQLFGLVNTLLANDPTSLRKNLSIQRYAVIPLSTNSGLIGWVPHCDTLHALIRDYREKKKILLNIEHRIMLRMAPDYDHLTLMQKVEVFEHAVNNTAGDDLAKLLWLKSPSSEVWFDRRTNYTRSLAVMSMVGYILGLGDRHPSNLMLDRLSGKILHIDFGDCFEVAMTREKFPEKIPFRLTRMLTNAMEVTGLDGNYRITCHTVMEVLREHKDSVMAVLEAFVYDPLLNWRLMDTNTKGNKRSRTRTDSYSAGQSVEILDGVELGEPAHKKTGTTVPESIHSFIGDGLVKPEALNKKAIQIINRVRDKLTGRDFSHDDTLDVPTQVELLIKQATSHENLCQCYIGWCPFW
In short: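 Steps: ATP (8 μM final) plus GFP-4EBP1 (400 nM final) combined with mTOR (0.5 nM final), incubated at rt; buffer HEPES pH 7.5 with 10 mM MnCl2, NaCl, EGTA, DTT. Then stopped with EDTA/Tb3+-anti-p4EBP1 pT46 Ab (0.5 nM). Plates read after 15 min.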

[1] = system: PKB Ser473 phosphorylation in Rat1-myr-HA-p110 delta cells; assay: Reverse protein array assay, PKB Ser473 phosphorylation in Rat1-myr-p110 delta cells; assay type: cell-based; settings: read-out: p-PKB IC50
In short: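 Measured: PKB Ser473 phosphorylation by reverse protein array in Rat1 cells expressing myr-HA-p110 alpha, beta or delta, after 30 min compound treatment at 37 °C with 0.2% DMSO vehicle.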

SMILES: Cc1nn(C(C)C)cc1-n1c(=O)n(C)c2cnc3ccc(-c4cnc(N)c(F)c4)cc3c21 [Example 142.3, 8-(6-Amino-5-fluoro-pyridin-3-yl)-1-(1-isopropyl-3-methyl-1H-pyrazol-4-yl)-3-methyl-1,3-dihydro-imidazo[4,5-c]quinolin-2-one]
- IC50 (PI3K beta): 385 nM
- IC50 (mTOR): 17 nM
- IC50 [1]: 23 nM

SMILES: CNc1ncc(-c2ccc3ncc4c(c3c2)n(-c2c(C)nn(C)c2C)c(=O)n4C)cc1C(F)(F)F [Example 144.1, 3-Methyl-8-(6-methylamino-5-trifluoromethyl-pyridin-3-yl)-1-(1,3,5-trimethyl-1H-pyrazol-4-yl)-1,3-dihydro-imidazo[4,5-c]quinolin-2-one]
- IC50 (PI3K beta): 80 nM
- IC50 (mTOR): 274 nM
- IC50 [1]: 84 nM

SMILES: Cc1nn(C)c(C)c1-n1c(=O)n(C)c2cnc3ccc(-c4cnc(N)c(Cl)c4)cc3c21 [Example 148.1, 8-(6-Amino-5-chloro-pyridin-3-yl)-3-methyl-1-(1,3,5-trimethyl-1H-pyrazol-4-yl)-1,3-dihydro-imidazo[4,5-c]quinolin-2-one]
- IC50 (PI3K beta): 51 nM
- IC50 (mTOR): 95 nM
- IC50 [1]: 90 nM

SMILES: Cc1nn(C)cc1-n1c(=O)n(C)c2cnc3ccc(-c4cnc(N)c(Cl)c4)cc3c21 [Example 148.2, 8-(6-Amino-5-chloro-pyridin-3-yl)-1-(1,3-dimethyl-1H-pyrazol-4-yl)-3-methyl-1,3-dihydro-imidazo[4,5-c]quinolin-2-one]
- IC50 (PI3K beta): 35 nM
- IC50 (mTOR): 9 nM
- IC50 [1]: 12 nM

SMILES: CCNc1cc(-c2ccc3ncc4c(c3c2)n(-c2cn(C)nc2C)c(=O)n4C)cnc1CO [Example 155.1, 1-(1,3-Dimethyl-1H-pyrazol-4-yl)-8-(5-ethylamino-6-hydroxymethyl-pyridin-3-yl)-3-methyl-1,3-dihydro-imidazo[4,5-c]quinolin-2-one]
- IC50 (PI3K beta): 19 nM
- IC50 (mTOR): 3 nM
- IC50 [1]: 19 nM

SMILES: CCNc1cc(-c2ccc3ncc4c(c3c2)n(-c2cn(CC)nc2C)c(=O)n4C)cnc1CO [Example 155.2, 8-(5-Ethylamino-6-hydroxymethyl-pyridin-3-yl)-1-(1-ethyl-3-methyl-1H-pyrazol-4-yl)-3-methyl-1,3-dihydro-imidazo[4,5-c]quinolin-2-one]
- IC50 (PI3K beta): 17 nM
- IC50 (mTOR): 12 nM
- IC50 [1]: 13 nM

SMILES: CNc1cc(-c2ccc3ncc4c(c3c2)n(-c2cn(C(C)C)nc2C)c(=O)n4C)cnc1CO [Example 158.2, 8-(6-Hydroxymethyl-5-methylamino-pyridin-3-yl)-1-(1-isopropyl-3-methyl-1H-pyrazol-4-yl)-3-methyl-1,3-dihydro-imidazo[4,5-c]quinolin-2-one]
- IC50 (PI3K beta): 184 nM
- IC50 (mTOR): 4 nM
- IC50 [1]: 15 nM

SMILES: CNc1cc(-c2ccc3ncc4c(c3c2)n(-c2cn(C)nc2Cl)c(=O)n4C)cnc1CO [Example 158.3, 1-(3-Chloro-1-methyl-1H-pyrazol-4-yl)-8-(6-hydroxymethyl-5-methylamino-pyridin-3-yl)-3-methyl-1,3-dihydro-imidazo[4,5-c]quinolin-2-one]
- IC50 (PI3K beta): 8 nM
- IC50 (mTOR): 12 nM
- IC50 [1]: < 5 nM

SMILES: CNc1cc(-c2ccc3ncc4c(c3c2)n(-c2cn(C)nc2C)c(=O)n4C)cnc1C [Example 163, 1-(1,3-Dimethyl-1H-pyrazol-4-yl)-3-methyl-8-(6-methyl-5-methylamino-pyridin-3-yl)-1,3-dihydro-imidazo[4,5-c]quinolin-2-one]
- IC50 (PI3K beta): 10 nM
- IC50 (mTOR): < 3 nM
- IC50 [1]: 12 nM

SMILES: CCN(C)c1cc(-c2ccc3ncc4c(c3c2)n(-c2cn(C)nc2C)c(=O)n4C)cnc1C [Example 165, 1-(1,3-Dimethyl-1H-pyrazol-4-yl)-8-[5-(ethyl-methyl-amino)-6-methyl-pyridin-3-yl]-3-methyl-1,3-dihydro-imidazo[4,5-c]quinolin-2-one]
- IC50 (PI3K beta): 25 nM
- IC50 (mTOR): < 3 nM
- IC50 [1]: 8 nM

SMILES: Cc1nn(C(C)C)cc1-n1c(=O)n(C)c2cnc3ccc(-c4cnc(N)c(CO)c4)cc3c21 [Example 169.1, 8-(6-Amino-5-hydroxymethyl-pyridin-3-yl)-1-(1-isopropyl-3-methyl-1H-pyrazol-4-yl)-3-methyl-1,3-dihydro-imidazo[4,5-c]quinolin-2-one]
- IC50 (PI3K beta): 87 nM
- IC50 (mTOR): < 3 nM
- IC50 [1]: 70 nM

SMILES: Cc1nn(C)c(C)c1-n1c(=O)n(C)c2cnc3ccc(-c4cnc(N)c(CO)c4)cc3c21 [Example 169.2, 8-(6-Amino-5-hydroxymethyl-pyridin-3-yl)-3-methyl-1-(1,3,5-trimethyl-1H-pyrazol-4-yl)-1,3-dihydro-imidazo[4,5-c]quinolin-2-one]
- IC50 (PI3K beta): 165 nM
- IC50 (mTOR): 149 nM
- IC50 [1]: 869 nM

SMILES: Cc1nn(C)cc1-n1c(=O)n(C)c2cnc3ccc(-c4cncc(NC5CCC5)c4)cc3c21 [Example 172, 8-(5-Cyclobutylamino-pyridin-3-yl)-1-(1,3-dimethyl-1H-pyrazol-4-yl)-3-methyl-1,3-dihydro-imidazo[4,5-c]quinolin-2-one]
- IC50 (PI3K beta): 146 nM
- IC50 (mTOR): < 3 nM
- IC50 [1]: 15 nM

SMILES: Cc1nn(C)cc1-n1c(=O)n(C)c2cnc3ccc(-c4cncc(N(C)C(C)C)c4)cc3c21 [Example 173, 1-(1,3-Dimethyl-1H-pyrazol-4-yl)-8-[5-(isopropyl-methyl-amino)-pyridin-3-yl]-3-methyl-1,3-dihydro-imidazo[4,5-c]quinolin-2-one]
- IC50 (PI3K beta): 148 nM
- IC50 (mTOR): 4 nM
- IC50 [1]: 50 nM

SMILES: Cc1nn(C)cc1-n1c(=O)n(C)c2cnc3ccc(-c4cncc(N5CCOCC5)c4)cc3c21 [Example 175.1, 1-(1,3-Dimethyl-1H-pyrazol-4-yl)-3-methyl-8-(5-morpholin-4-yl-pyridin-3-yl)-1,3-dihydro-imidazo[4,5-c]quinolin-2-one]
- IC50 (PI3K beta): 180 nM
- IC50 (mTOR): 6 nM
- IC50 [1]: 90 nM

SMILES: Cc1nn(C)cc1-n1c(=O)n(C)c2cnc3ccc(-c4cncc(N(C)C)c4)cc3c21 [Example 178, 8-(5-Dimethylamino-pyridin-3-yl)-1-(1,3-dimethyl-1H-pyrazol-4-yl)-3-methyl-1,3-dihydro-imidazo[4,5-c]quinolin-2-one]
- IC50 (PI3K beta): 274 nM
- IC50 (mTOR): 15 nM
- IC50 [1]: 85 nM

SMILES: Cc1nn(C)cc1-n1c(=O)n(C)c2cnc3ccc(-c4cncc(N5CCC5)c4)cc3c21 [Example 179, 8-(5-Azetidin-1-yl-pyridin-3-yl)-1-(1,3-dimethyl-1H-pyrazol-4-yl)-3-methyl-1,3-dihydro-imidazo[4,5-c]quinolin-2-one]
- IC50 (PI3K beta): 130 nM
- IC50 (mTOR): 13 nM
- IC50 [1]: 25 nM

SMILES: CNc1cncc(-c2ccc3ncc4c(c3c2)n(-c2cn(C(C)C)nc2C)c(=O)n4C)c1 [Example 180.2, 1-(1-Isopropyl-3-methyl-1H-pyrazol-4-yl)-3-methyl-8-(5-methylamino-pyridin-3-yl)-1,3-dihydro-imidazo[4,5-c]quinolin-2-one]
- IC50 (PI3K beta): 42 nM
- IC50 (mTOR): < 3 nM
- IC50 [1]: 24 nM

SMILES: CCOc1cc(-c2ccc3ncc4c(c3c2)n(-c2cn(C)nc2C)c(=O)n4C)cnc1CC [Example 187, 1-(1,3-Dimethyl-1H-pyrazol-4-yl)-8-(5-ethoxy-6-ethyl-pyridin-3-yl)-3-methyl-1,3-dihydro-imidazo[4,5-c]quinolin-2-one]
- IC50 (PI3K beta): 28 nM
- IC50 (mTOR): 8 nM
- IC50 [1]: 24 nM

SMILES: CCc1ncc(-c2ccc3ncc4c(c3c2)n(-c2cn(C)nc2C)c(=O)n4C)cc1O [Example 188, 1-(1,3-Dimethyl-1H-pyrazol-4-yl)-8-(6-ethyl-5-hydroxy-pyridin-3-yl)-3-methyl-1,3-dihydro-imidazo[4,5-c]quinolin-2-one]
- IC50 (PI3K beta): 30 nM
- IC50 (mTOR): < 3 nM
- IC50 [1]: 41 nM

SMILES: CCn1cc(-n2c(=O)n(C)c3cnc4ccc(-c5cnc(COC)c(OC(C)C)c5)cc4c32)c(C)n1 [Example 191.2, 1-(1-Ethyl-3-methyl-1H-pyrazol-4-yl)-8-(5-isopropoxy-6-methoxymethyl-pyridin-3-yl)-3-methyl-1,3-dihydro-imidazo[4,5-c]quinolin-2-one]
- IC50 (PI3K beta): 178 nM
- IC50 (mTOR): 34 nM
- IC50 [1]: 88 nM

SMILES: Cc1nn(C)cc1-n1c(=O)n(C)c2cnc3ccc(-c4cnc(CO)c(OC(CF)CF)c4)cc3c21 [Example 192, 1-(1,3-Dimethyl-1H-pyrazol-4-yl)-8-[5-(2-fluoro-1-fluoromethyl-ethoxy)-6-hydroxymethyl-pyridin-3-yl]-3-methyl-1,3-dihydro-imidazo[4,5-c]quinolin-2-one]
- IC50 (PI3K beta): 6 nM
- IC50 (mTOR): 6 nM
- IC50 [1]: 72 nM

SMILES: CCOc1cc(-c2ccc3ncc4c(c3c2)n(-c2cn(C(C)C)nc2C)c(=O)n4C)cnc1COC [Example 197.2, 8-(5-Ethoxy-6-methoxymethyl-pyridin-3-yl)-1-(1-isopropyl-3-methyl-1H-pyrazol-4-yl)-3-methyl-1,3-dihydro-imidazo[4,5-c]quinolin-2-one]
- IC50 (PI3K beta): 103 nM
- IC50 (mTOR): 107 nM
- IC50 [1]: 336 nM

SMILES: COCc1ccc(-c2ccc3ncc4c(c3c2)n(-c2cn(C)nc2Cl)c(=O)n4C)cn1 [Example 203, 1-(3-Chloro-1-methyl-1H-pyrazol-4-yl)-8-(6-methoxymethyl-pyridin-3-yl)-3-methyl-1,3-dihydro-imidazo[4,5-c]quinolin-2-one]
- IC50 (PI3K beta): 104 nM
- IC50 (mTOR): 15 nM
- IC50 [1]: 26 nM
